Experiment [1] addresses T1, human α1H T-type channels (Homo sapiens, UniProt O95180).
T1 construct: expressed in transfected cells; host or cells: HEK 293
The experiment can be described thus: T-type calcium channel block, whole cell patch clamp (α1H). The format is cell-based. To be noted: HEK cells stably expressing human α1H; mainly non-inactivated protocol; values above 10 μM represented as 10 μM. The gist of the method: (§1)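 Whole-cell patch clamp was run on HEK293 cells stably expressing human α1G or α1H. Cells were held at −110 mV and given a 1 s pre-pulse to −100 mV (non-inactivating protocol) before a 50 ms test pulse to −40 mV. Compounds were applied by gravity in external solution with 0.1-0.01% DMSO, and IC50 values are in μM, capped at 10 μM.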

Experiment [2] has as its target T2, human α1G T-type channels (Homo sapiens, UniProt O43497).
T2 construct: expressed in transfected cells; host or cells: HEK 293
In words: T-type calcium channel block, whole cell patch clamp (α1G). It counts as cell-based. The conditions noted are these: HEK cells stably expressing human α1G; mainly non-inactivated protocol; values above 10 μM represented as 10 μM, values below 0.30 μM represented as 0.30 μM. The gist of the method:
as §1
Background: In patch-clamp work, channel activity is measured electrically.

As a reminder, the IC50 is the concentration at which inhibition is half-maximal.

Some results are limits rather than exact numbers.

T2 sequence (O43497 whole entry): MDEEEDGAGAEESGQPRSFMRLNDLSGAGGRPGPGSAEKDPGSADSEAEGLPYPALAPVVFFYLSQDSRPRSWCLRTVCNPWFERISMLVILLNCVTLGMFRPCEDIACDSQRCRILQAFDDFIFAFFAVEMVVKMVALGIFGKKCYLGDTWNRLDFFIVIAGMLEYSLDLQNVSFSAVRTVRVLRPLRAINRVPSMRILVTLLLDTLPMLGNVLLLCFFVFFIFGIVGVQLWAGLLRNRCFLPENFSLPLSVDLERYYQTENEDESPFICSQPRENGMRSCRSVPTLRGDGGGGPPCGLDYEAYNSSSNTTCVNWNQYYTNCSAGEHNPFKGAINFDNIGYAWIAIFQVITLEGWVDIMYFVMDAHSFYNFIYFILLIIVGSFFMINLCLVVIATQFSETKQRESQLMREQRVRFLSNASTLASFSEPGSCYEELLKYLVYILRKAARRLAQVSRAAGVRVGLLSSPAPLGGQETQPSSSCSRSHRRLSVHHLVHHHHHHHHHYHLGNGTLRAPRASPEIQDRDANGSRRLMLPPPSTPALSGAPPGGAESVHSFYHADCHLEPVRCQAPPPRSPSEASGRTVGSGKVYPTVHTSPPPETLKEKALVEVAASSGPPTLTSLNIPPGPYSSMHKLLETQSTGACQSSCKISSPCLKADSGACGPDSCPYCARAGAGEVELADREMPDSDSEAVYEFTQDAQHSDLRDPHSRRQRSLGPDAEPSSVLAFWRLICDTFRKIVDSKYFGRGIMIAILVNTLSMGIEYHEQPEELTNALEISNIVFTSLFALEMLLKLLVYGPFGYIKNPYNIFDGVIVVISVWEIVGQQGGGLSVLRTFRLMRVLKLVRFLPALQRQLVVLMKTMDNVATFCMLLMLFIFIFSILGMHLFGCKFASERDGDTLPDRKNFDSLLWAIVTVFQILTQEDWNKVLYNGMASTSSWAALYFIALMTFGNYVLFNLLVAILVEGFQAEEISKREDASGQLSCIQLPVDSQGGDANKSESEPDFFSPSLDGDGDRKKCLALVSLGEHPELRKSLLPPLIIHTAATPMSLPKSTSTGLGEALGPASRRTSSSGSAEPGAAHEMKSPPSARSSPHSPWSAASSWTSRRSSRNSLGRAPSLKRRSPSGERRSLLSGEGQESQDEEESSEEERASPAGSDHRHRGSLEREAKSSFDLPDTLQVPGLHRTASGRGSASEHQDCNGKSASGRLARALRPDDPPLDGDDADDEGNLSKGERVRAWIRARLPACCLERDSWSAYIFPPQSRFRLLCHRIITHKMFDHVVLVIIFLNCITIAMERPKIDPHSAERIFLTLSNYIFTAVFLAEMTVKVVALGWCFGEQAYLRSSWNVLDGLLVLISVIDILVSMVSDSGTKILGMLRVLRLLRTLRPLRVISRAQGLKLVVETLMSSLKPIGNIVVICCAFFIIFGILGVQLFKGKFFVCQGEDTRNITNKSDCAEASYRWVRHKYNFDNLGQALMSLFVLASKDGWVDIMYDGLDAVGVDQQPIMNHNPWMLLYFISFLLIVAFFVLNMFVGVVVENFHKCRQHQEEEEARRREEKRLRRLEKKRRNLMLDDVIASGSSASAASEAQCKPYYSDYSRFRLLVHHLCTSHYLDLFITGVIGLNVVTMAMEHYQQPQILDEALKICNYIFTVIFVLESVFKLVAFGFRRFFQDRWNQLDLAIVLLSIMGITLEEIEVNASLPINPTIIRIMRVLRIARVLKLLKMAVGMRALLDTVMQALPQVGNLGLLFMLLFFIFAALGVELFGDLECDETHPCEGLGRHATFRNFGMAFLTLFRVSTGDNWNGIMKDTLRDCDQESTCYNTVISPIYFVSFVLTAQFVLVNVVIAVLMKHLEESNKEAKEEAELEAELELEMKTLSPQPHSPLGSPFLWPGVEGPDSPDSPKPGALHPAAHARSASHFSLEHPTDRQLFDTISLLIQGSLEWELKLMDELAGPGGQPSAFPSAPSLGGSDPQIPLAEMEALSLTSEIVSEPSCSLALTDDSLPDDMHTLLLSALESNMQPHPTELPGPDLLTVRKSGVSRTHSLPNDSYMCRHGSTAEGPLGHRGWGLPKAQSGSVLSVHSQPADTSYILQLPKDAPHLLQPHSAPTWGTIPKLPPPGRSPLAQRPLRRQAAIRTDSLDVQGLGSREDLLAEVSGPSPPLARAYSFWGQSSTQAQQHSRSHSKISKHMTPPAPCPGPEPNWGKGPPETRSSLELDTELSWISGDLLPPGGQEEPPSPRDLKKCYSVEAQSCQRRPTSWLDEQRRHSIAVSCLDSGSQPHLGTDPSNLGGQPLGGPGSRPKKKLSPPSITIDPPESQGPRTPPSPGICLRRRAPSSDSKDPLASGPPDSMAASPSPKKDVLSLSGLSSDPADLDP
T1 sequence (O95180 whole entry): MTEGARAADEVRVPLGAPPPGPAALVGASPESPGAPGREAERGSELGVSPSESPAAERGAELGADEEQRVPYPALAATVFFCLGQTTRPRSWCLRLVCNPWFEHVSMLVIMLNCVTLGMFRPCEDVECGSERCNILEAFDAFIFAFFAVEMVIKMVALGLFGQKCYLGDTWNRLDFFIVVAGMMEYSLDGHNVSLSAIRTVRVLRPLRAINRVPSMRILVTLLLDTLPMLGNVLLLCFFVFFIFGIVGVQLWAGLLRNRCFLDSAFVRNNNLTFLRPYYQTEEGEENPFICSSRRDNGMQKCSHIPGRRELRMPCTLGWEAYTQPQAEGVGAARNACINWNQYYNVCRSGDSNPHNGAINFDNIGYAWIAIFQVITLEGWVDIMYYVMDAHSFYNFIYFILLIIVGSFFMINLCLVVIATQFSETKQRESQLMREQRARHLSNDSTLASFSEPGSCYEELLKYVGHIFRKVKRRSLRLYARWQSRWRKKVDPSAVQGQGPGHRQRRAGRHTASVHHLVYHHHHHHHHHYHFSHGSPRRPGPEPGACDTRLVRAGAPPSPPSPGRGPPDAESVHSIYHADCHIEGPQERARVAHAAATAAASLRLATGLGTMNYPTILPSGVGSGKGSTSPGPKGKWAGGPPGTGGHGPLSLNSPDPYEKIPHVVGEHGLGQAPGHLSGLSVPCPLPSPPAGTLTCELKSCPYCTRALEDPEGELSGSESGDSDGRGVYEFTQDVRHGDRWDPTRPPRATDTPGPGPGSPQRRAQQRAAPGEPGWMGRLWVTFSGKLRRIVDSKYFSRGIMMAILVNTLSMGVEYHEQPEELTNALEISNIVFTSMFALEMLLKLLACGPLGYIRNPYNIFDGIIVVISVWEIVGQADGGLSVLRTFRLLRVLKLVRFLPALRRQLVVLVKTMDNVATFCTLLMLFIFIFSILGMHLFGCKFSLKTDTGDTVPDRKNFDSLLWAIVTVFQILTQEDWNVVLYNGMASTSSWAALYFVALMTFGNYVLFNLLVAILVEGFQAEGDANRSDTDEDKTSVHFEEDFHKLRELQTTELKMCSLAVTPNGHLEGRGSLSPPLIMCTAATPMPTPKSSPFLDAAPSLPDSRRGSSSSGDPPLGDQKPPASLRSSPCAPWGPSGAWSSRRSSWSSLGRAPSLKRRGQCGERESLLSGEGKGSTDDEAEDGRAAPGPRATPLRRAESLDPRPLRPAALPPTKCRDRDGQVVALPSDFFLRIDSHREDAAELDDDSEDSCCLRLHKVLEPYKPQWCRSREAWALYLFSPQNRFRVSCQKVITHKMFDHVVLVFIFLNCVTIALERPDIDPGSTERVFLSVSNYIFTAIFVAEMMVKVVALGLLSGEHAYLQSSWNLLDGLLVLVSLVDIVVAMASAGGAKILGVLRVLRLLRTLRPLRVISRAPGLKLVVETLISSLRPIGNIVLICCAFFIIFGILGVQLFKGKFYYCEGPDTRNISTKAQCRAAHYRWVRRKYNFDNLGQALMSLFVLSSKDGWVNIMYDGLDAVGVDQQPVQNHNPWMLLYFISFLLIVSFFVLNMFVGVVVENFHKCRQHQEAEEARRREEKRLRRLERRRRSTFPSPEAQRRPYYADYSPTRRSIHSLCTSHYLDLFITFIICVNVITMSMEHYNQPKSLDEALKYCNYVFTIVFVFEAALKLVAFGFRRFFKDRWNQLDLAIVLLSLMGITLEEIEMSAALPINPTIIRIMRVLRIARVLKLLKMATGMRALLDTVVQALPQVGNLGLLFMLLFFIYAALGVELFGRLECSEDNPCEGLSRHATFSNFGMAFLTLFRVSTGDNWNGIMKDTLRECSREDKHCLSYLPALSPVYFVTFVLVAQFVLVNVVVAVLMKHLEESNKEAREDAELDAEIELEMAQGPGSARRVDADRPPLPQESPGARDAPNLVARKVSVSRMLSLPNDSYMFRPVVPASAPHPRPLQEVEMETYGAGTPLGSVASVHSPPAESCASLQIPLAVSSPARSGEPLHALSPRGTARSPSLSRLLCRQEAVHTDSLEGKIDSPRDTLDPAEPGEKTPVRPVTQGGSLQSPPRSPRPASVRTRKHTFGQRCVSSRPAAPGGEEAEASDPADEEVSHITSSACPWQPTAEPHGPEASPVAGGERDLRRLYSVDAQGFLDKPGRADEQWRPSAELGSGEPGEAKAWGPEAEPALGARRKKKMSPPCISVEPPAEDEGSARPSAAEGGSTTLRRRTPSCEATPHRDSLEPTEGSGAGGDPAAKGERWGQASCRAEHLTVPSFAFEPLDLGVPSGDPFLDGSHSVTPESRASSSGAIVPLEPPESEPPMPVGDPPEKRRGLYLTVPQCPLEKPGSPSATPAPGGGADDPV

Regarding `Cc1cccc(CN[C@H]2CC[C@@H](CNC(=O)c3cc(C(F)(F)F)cc(C(F)(F)F)c3)CC2)c1O` [Compound 9, N-((cis-4-(2-hydroxy-3-methylbenzylamino)cyclohexyl)methyl)-3,5-bis(trifluoromethyl)benzamide], the values for the IC50 in experiment [1] and in experiment [2] were 710 nM and 850 nM, respectively.

Turning to `COc1cccnc1CN[C@H]1CC[C@@H](CNC(=O)c2cc(F)cc(C(F)(F)F)c2)CC1` [Compound 20, 3-fluoro-N-((cis-4-((3-methoxypyridin-2-yl)methylamino)cyclohexyl)methyl)-5-(trifluoromethyl)benzamide], the concentration for half-maximal inhibition (IC50) in experiment [1] amounted to 5350 nM; in experiment [2] it was 3320 nM.

As for `CN(C(=O)CN[C@H]1CC[C@@H](CNC(=O)c2cc(F)cc(Cl)c2)CC1)C1(C)CCC1` [Compound 213, 3-chloro-5-fluoro-N-(((1s,4s)-4-(2-(methyl(1-methylcyclobutyl)amino)-2-oxoethylamino)cyclohexyl)methyl)benzamide], the figures for the IC50 in experiment [1] and in experiment [2] were 330 nM and 1030 nM, respectively.

Consider `O=C(NC[C@H]1CC[C@@H](NCc2cccc(F)c2O)CC1)c1cc(F)cc(C(F)(F)F)c1` [Compound 21, 3-fluoro-N-((cis-4-(3-fluoro-2-hydroxybenzylamino)cyclohexyl)methyl)-5-(trifluoromethyl)benzamide], for which the IC50 in experiment [1] worked out at 4580 nM; in experiment [2] it was 840 nM.

With `O=C(C[C@H]1CC[C@H](NC(=O)C2(c3ccccc3)CCNCC2)CC1)Nc1cc(C(F)(F)F)cc(C(F)(F)F)c1` [Compound 121, (S)-N-(trans-4-(2-(3,5-bis(trifluoromethyl)phenylamino)-2-oxoethyl)cyclohexyl)-4-phenylpiperidine-4-carboxamide], the IC50 in experiment [1] is at least 10000 nM; in experiment [2], 610 nM.

Consider `CCN(CC)C(=O)CN[C@H]1CC[C@@H](CNC(=O)c2cc(C(F)(F)F)cc(C(F)(F)F)c2)CC1` [Compound 41, N-((cis-4-(2-(diethylamino)-2-oxoethylamino)cyclohexyl)methyl)-3,5-bis(trifluoromethyl)benzamide], for which the concentration for half-maximal inhibition (IC50) in experiment [1] was 330 nM; in experiment [2], at most 300 nM.

Consider `CN(C(=O)CN[C@H]1CC[C@@H](CNC(=O)c2cc(F)cc(Cl)c2)CC1)C(C)(C)C` [Compound 196, N-(((1s,4s)-4-(2-(tert-butyl(methyl)amino)-2-oxoethylamino)cyclohexyl)methyl)-3-chloro-5-fluorobenzamide], for which the IC50 stood at 210 nM in experiment [1] and 1620 nM in experiment [2].

For `COc1cc(F)cc(C(=O)NC[C@H]2CC[C@H](NCC(=O)N(C)C(C)(C)C)CC2)c1` [Compound 210, N-(((1r,4r)-4-(2-(tert-butyl(methyl)amino)-2-oxoethylamino)cyclohexyl)methyl)-3-fluoro-5-methoxybenzamide], the values for the IC50 in experiment [1] and in experiment [2] were 2390 nM and 5610 nM, respectively.

Regarding `CC(C)(C)C1CN([C@H]2CC[C@H](CNC(=O)c3cc(C(F)(F)F)cc(C(F)(F)F)c3)CC2)C(=O)O1` (stereo partly drawn) [Compound 153, N-((trans-4-(5-tert-butyl-2-oxooxazolidin-3-yl)cyclohexyl)methyl)-3,5-bis(trifluoromethyl)benzamide], the half-inhibitory concentration (IC50) came out at 4010 nM in experiment [1] and 1180 nM in experiment [2].

`COc1cc(F)cc(C(=O)NC[C@H]2CC[C@H](NCC(=O)N3CCOCC3(C)C)CC2)c1` [Compound 208, N-(((1r,4r)-4-(2-(3,3-dimethylmorpholino)-2-oxoethylamino)cyclohexyl)methyl)-3-fluoro-5-methoxybenzamide]: the IC50 in experiment [1] was 4330 nM; in experiment [2], at least 10000 nM.

As to `CC(C)(C)NC(=O)CN[C@H]1CC[C@@H](CNC(=O)c2cccc(Br)c2)CC1` [Compound 183, 3-bromo-N-(((1s,4s)-4-(2-(tert-butylamino)-2-oxoethylamino)cyclohexyl)methyl)benzamide], the IC50 in experiment [1] is 820 nM; in experiment [2] it was 2240 nM.

On to `COc1cc(F)cc(C(=O)NC[C@H]2CC[C@@H](NCC(=O)N3CCCC3(C)C)CC2)c1` [Compound 199, N-(((1s,4s)-4-(2-(2,2-dimethylpyrrolidin-1-yl)-2-oxoethylamino)cyclohexyl)methyl)-3-fluoro-5-methoxybenzamide], for which the IC50 in experiment [1] came out at 350 nM; in experiment [2] it was 3800 nM.

On to `CCC1CCCN1C(=O)CN[C@H]1CC[C@@H](CNC(=O)c2cc(C(F)(F)F)cc(C(F)(F)F)c2)CC1` (stereo partly drawn) [Compound 54, N-((cis-4-(2-(2-ethylpyrrolidin-1-yl)-2-oxoethylamino)cyclohexyl)methyl)-3,5-bis(trifluoromethyl)benzamide], for which the IC50 was 210 nM in experiment [1] and at most 300 nM in experiment [2].

For the compound `CC(C)(C)OC(=O)NCCN[C@H]1CC[C@@H](CNC(=O)c2cc(C(F)(F)F)cc(C(F)(F)F)c2)CC1` [Compound 98, tert-butyl 2-(cis-4-((3,5-bis(trifluoromethyl)benzamido)methyl)cyclohexylamino)ethylcarbamate], the IC50 in experiment [1] is 780 nM; in experiment [2], 410 nM.

In the case of `CC(C)(C)c1nc(CN[C@H]2CC[C@@H](CNC(=O)c3cc(C(F)(F)F)cc(C(F)(F)F)c3)CC2)no1` [Compound 51, N-((cis-4-((5-tert-butyl-1,2,4-oxadiazol-3-yl)methylamino)cyclohexyl)methyl)-3,5-bis(trifluoromethyl)benzamide], the IC50 in experiment [1] worked out at 820 nM; in experiment [2], 1150 nM.

For `CC(C)(C)OC(=O)N[C@H]1CC[C@@H](CC(=O)Nc2cc(C(F)(F)F)cc(C(F)(F)F)c2)CC1` [Compound 105, tert-butyl cis-4-(2-(3,5-bis(trifluoromethyl)phenylamino)-2-oxoethyl)cyclohexylcarbamate], the IC50 in experiment [1] was 6070 nM; in experiment [2] it was 650 nM.

On to `O=C(NC[C@H]1CC[C@H](NCC(=O)N2CCC(F)(F)C2)CC1)c1cc(C(F)(F)F)cc(C(F)(F)F)c1` [Compound 61, N-((trans-4-(2-(3,3-difluoropyrrolidin-1-yl)-2-oxoethylamino)cyclohexyl)methyl)-3,5-bis(trifluoromethyl)benzamide], for which the IC50 in experiment [1] came to 1730 nM; in experiment [2], 1590 nM.

On to `CCC(C)NC(=O)CN[C@H]1CC[C@@H](CNC(=O)c2cc(C(F)(F)F)cc(C(F)(F)F)c2)CC1` (stereo partly drawn) [Compound 71, N-((cis-4-(2-(sec-butylamino)-2-oxoethylamino)cyclohexyl)methyl)-3,5-bis(trifluoromethyl)benzamide], for which the IC50 in experiment [1] was 270 nM; in experiment [2], at most 300 nM.

As for `O=C(CN[C@H]1CC[C@@H](CNC(=O)c2cc(C(F)(F)F)cc(C(F)(F)F)c2)CC1)NCC(F)(F)F` [Compound 43, N-((cis-4-(2-oxo-2-(2,2,2-trifluoroethylamino)ethylamino)cyclohexyl)methyl)-3,5-bis(trifluoromethyl)benzamide], the values for the concentration for half-maximal inhibition (IC50) in experiment [1] and in experiment [2] were 450 nM and 910 nM, respectively.

Turning to `COc1ccc(CN[C@H]2CC[C@@H](CNC(=O)c3cc(F)cc(C(F)(F)F)c3)CC2)c(OC)c1` [Compound 24, N-((cis-4-(2,4-dimethoxybenzylamino)cyclohexyl)methyl)-3-fluoro-5-(trifluoromethyl)benzamide], the half-maximal inhibitory concentration (IC50) in experiment [1] stood at 590 nM; in experiment [2], 340 nM.

Consider `CC(C)(C)NC(=O)CN[C@H]1CC[C@H](CNC(=O)c2cc(C(F)(F)F)cc(C(F)(F)F)c2)CC1` [Compound 55, N-((trans-4-(2-(tert-butylamino)-2-oxoethylamino)cyclohexyl)methyl)-3,5-bis(trifluoromethyl)benzamide], for which the IC50 was 370 nM in experiment [1] and at most 300 nM in experiment [2].

Regarding `O=C(NC[C@H]1CC[C@@H](NCc2cccnc2F)CC1)c1cc(F)cc(C(F)(F)F)c1` [Compound 17, 3-fluoro-N-((cis-4-((2-fluoropyridin-3-yl)methylamino)cyclohexyl)methyl)-5-(trifluoromethyl)benzamide], the IC50 is 4940 nM in experiment [1] and 7730 nM in experiment [2].

Regarding `CC(C)(C)C(O)CN[C@H]1CC[C@@H](CNC(=O)c2cc(F)cc(C(F)(F)F)c2)CC1` (stereo partly drawn) [Compound 2, 3-fluoro-N-((cis-4-(2-hydroxy-3,3-dimethylbutylamino)cyclohexyl)methyl)-5-(trifluoromethyl)benzamide], the concentration for half-maximal inhibition (IC50) in experiment [1] worked out at 550 nM; in experiment [2], 450 nM.

Consider `O=C(NC[C@H]1CC[C@@H](NCc2ncccc2O)CC1)c1cc(F)cc(C(F)(F)F)c1` [Compound 16, 3-fluoro-N-((cis-4-((3-hydroxypyridin-2-yl)methylamino)cyclohexyl)methyl)-5-(trifluoromethyl)benzamide], for which the half-maximal inhibitory concentration (IC50) in experiment [1] was at least 10000 nM; in experiment [2], 4440 nM.

Turning to `CC1(NC(=O)CN[C@H]2CC[C@H](CNC(=O)c3cccc(OC(F)(F)F)c3)CC2)CCC1` [Compound 190, N-(((1r,4r)-4-(2-(1-methylcyclobutylamino)-2-oxoethylamino)cyclohexyl)methyl)-3-(trifluoromethoxy)benzamide], the IC50 turned out to be 620 nM in experiment [1] and 1630 nM in experiment [2].

As for `Cc1ccc(-c2csc(NC(=O)C[C@H]3CC[C@H](NCC(O)(C(F)(F)F)C(F)(F)F)CC3)n2)cc1` [Compound 151, N-(4-p-tolylthiazol-2-yl)-2-(trans-4-(3,3,3-trifluoro-2-hydroxy-2-(trifluoromethyl)propylamino)cyclohexyl)acetamide], the half-inhibitory concentration (IC50) is at least 10000 nM in experiment [1] and 480 nM in experiment [2].

Consider `CCN(CC)C(=O)CN[C@H]1CC[C@H](CNC(=O)c2cc(C(F)(F)F)cc(C(F)(F)F)c2)CC1` [Compound 56, N-((trans-4-(2-(diethylamino)-2-oxoethylamino)cyclohexyl)methyl)-3,5-bis(trifluoromethyl)benzamide], for which the IC50 was 590 nM in experiment [1] and 440 nM in experiment [2].
